Measured values taken from US20230270832A1, “MAGEA1 IMMUNOGENIC PEPTIDES, BINDING PROTEINS RECOGNIZING MAGEA1 IMMUNOGENIC PEPTIDES, AND USES THEREOF” (TScan Therapeutics, Inc., priority 2021, published 2023).

Test system: TCR-transduced T cells
Assay: Peptide-pulsed HLA-C*07:02 monoallelic HEK293T granzyme-activated fluorescent reporter cells co-cultured with TCR-transduced T cells
Type: cell-based, human
Method: Overlapping peptide sequences with a score >2.5 fold were used to predict MHC binding with NetMHC4.0 (available on the World Wide Web at cbs.dtu.dk) and the top predicted MHC binding peptides were synthesized (Genscript). Monoallelic C*07:02 HEK293T reporter cells were pulsed with serial dilutions 0-20,000 ng/ml of each peptide candidate for 1 hour and then co-cultured with TCR-transduced T cells (1-IN-32-39 or HN-32-41) at an E:T ratio of ˜1:1. After 4 hours, the cultures were harvested by pipetting and fluorescence of the reporter was detected using a CytoFLEX™ S instrument (Beckman Coulter). Additionally, monoallelic C*07:02 HEK293 suspension cells were pulsed with serial dilutions 0-500 pM of peptide VBFFFPSL (SEQ ID NO: 1) for 2 hours and then co-cultured with TCR-transduced T cells (HN-32-39 or HN-32-41) at an E:T ratio of 1:1 overnight. Cells were then harvested by pipetting and centrifuged at 2,000 rpm for 2 minutes. The supernatant was collected for IFNγ measurement using a human IFNγ 3rd generation single-plex assay (Protein Simple).

In the case of “VRFFFPSL (listed as Homo sapiens) [VBFFFPSL]”, the “immunogenicity in peptide validation” value (FIGS. 2D and 2E) was “most favorable immunogenicity” and the “reactivity of the TCR-transduced T cells to peptide-pulsed reporter cells (epitope confirmation)” value (HLA-C*07:02 monoallelic HEK293T, granzyme-activated fluorescent reporter, FIGS. 2D and 2E left) was “minimal MAGEA1 epitope”.
